# Data as given in patent US10231453B2, “5-substituted imidazole derivatives” (BAYER CROPSCIENCE AKTIENGESELLSCHAFT, priority 2015, dated 2019).
# Tested on: Fusarium nivale (var. majus)
# Assay: In vivo preventive Fusarium nivale (var. majus) test (wheat), Example O
# Details: Microdochium nivale, 120 h, 500 ppm of active ingredient, preventive spray, evaluated 5 days after inoculation, read-out: efficacy
# Source text: After the spray coating has been dried, the plants are slightly injured by using a sandblast and afterwards they are sprayed with a conidia suspension of Fusarium nivale (var. majus).
row,Structure (SMILES),pest or weed control at 500 ppm [%]
1,N#Cc1cncn1CC(O)(Cc1ccc(F)c(F)c1)C1(Cl)CC1 (centres unmarked) [Example I-109],80 to 89

# Tested on: Fusarium graminearum
# Assay: whole plant or invertebrate
# Assay type: in vivo
# Details: in Hordeum vulgare, 120 h, read-out: efficacy
row,Structure (SMILES),pest or weed control at 500 ppm [%]
1,CC(C)(C)C(O)(Cc1ccccc1F)Cn1cncc1C#N (centres unmarked) [Example I-138],90 to 100
2,N#Cc1cncn1CC(O)(Cc1ccccc1Cl)C1(F)CC1 (centres unmarked) [Example I-98],90 to 100
3,N#Cc1cncn1CC(O)(Cc1ccc(F)c(F)c1)C1(Cl)CC1 (centres unmarked) [Example I-109],90 to 100
4,OC(Cc1ccc(Br)cc1F)(Cn1cncc1Cl)C1(Cl)CC1 (centres unmarked) [Example I-44],70 to 79
5,N#Cc1cncn1CC(O)(Cc1ccc(F)c(F)c1F)C1(Cl)CC1 (centres unmarked) [Example I-103],90 to 100

# Tested on: Pyricularia oryzae
# Assay: whole plant or invertebrate
# Assay type: in vivo
# Details: 192 h, read-out: efficacy
row,Structure (SMILES),pest or weed control at 500 ppm [%]
1,CC(C)(C)C(O)(Cc1ccccc1F)Cn1cncc1C#N (centres unmarked) [Example I-138],80 to 89
2,N#Cc1cncn1CC(O)(Cc1ccccc1Cl)C1(F)CC1 (centres unmarked) [Example I-98],90 to 100
3,OC(Cc1ccc(Br)cc1F)(Cn1cncc1Cl)C1(Cl)CC1 (centres unmarked) [Example I-44],70 to 79

# Tested on: Pyrenophora teres
# Assay: In vivo preventive test on Pyrenophora teres (net blotch on barley), Examples D, Q2 and R4
# Details: Pyrenophora teres, 336 h, 500 ppm of active ingredient, preventive spray, evaluated 14 days after inoculation, read-out: efficacy
row,Structure (SMILES),pest or weed control at 500 ppm [%]
1,N#Cc1cncn1CC(O)(Cc1ccccc1Cl)C1(F)CC1 (centres unmarked) [Example I-98],90 to 100
2,N#Cc1cncn1CC(O)(Cc1ccc(F)c(F)c1)C1(Cl)CC1 (centres unmarked) [Example I-109],90 to 100
3,OC(Cc1ccc(Br)cc1F)(Cn1cncc1Cl)C1(Cl)CC1 (centres unmarked) [Example I-44],90 to 100
4,N#Cc1cncn1CC(O)(Cc1ccc(F)c(F)c1F)C1(Cl)CC1 (centres unmarked) [Example I-103],80 to 89
5,OC(Cc1ccccc1F)(Cn1cncc1Br)C1(Cl)CC1 (centres unmarked) [Example I-33],80 to 89

# Tested on: Blumeria graminis fsp. hordei
# Assay: In vivo preventive Blumeria test (barley), Example K
# Details: 168 h, 500 ppm of active ingredient, preventive spray, evaluated 7 days after inoculation, read-out: efficacy
# Source text: After the spray coating has been dried, the plants are dusted with spores of Blumeria graminis fsp. hordei.
row,Structure (SMILES),pest or weed control at 500 ppm [%]
1,CC(C)(C)C(O)(Cc1ccccc1F)Cn1cncc1C#N (centres unmarked) [Example I-138],90 to 100
2,N#Cc1cncn1CC(O)(Cc1ccccc1Cl)C1(F)CC1 (centres unmarked) [Example I-98],90 to 100
3,N#Cc1cncn1CC(O)(Cc1ccc(F)c(F)c1)C1(Cl)CC1 (centres unmarked) [Example I-109],90 to 100
4,OC(Cc1ccc(Br)cc1F)(Cn1cncc1Cl)C1(Cl)CC1 (centres unmarked) [Example I-44],90 to 100
5,N#Cc1cncn1CC(O)(Cc1ccc(F)c(F)c1F)C1(Cl)CC1 (centres unmarked) [Example I-103],90 to 100
6,OC(Cc1ccccc1F)(Cn1cncc1Br)C1(Cl)CC1 (centres unmarked) [Example I-33],90 to 100

# Tested on: Phakopsora pachyrhizi
# Assay: In vivo preventive Phakopsora test (soybeans), Example I
# Details: 168 h, 100 ppm of active ingredient, preventive spray, evaluated 7 days after inoculation, read-out: efficacy
row,Structure (SMILES),pest or weed control at 100 ppm [%]
1,CC(C)(C)C(O)(Cc1ccccc1F)Cn1cncc1C#N (centres unmarked) [Example I-138],90 to 100
2,N#Cc1cncn1CC(O)(Cc1ccccc1Cl)C1(F)CC1 (centres unmarked) [Example I-98],90 to 100
3,OC(Cc1ccc(Br)cc1F)(Cn1cncc1Cl)C1(Cl)CC1 (centres unmarked) [Example I-44],90 to 100
4,N#Cc1cncn1CC(O)(Cc1ccc(F)c(F)c1F)C1(Cl)CC1 (centres unmarked) [Example I-103],90 to 100
5,OC(Cc1ccccc1F)(Cn1cncc1Br)C1(Cl)CC1 (centres unmarked) [Example I-33],90 to 100

# Tested on: Puccinia recondita
# Assay: In vivo preventive test on Puccinia recondita (brown rust on wheat), Examples C and R3
# Details: Puccinia recondita, 264 h; 500 ppm of active ingredient; wheat, preventive spray, evaluated 11 days after inoculation; read-out: efficacy
row,Structure (SMILES),pest or weed control at 500 ppm [%]
1,CC(C)(C)C(O)(Cc1ccccc1F)Cn1cncc1C#N (centres unmarked) [Example I-138],90 to 100
2,N#Cc1cncn1CC(O)(Cc1ccccc1Cl)C1(F)CC1 (centres unmarked) [Example I-98],90 to 100
3,N#Cc1cncn1CC(O)(Cc1ccc(F)c(F)c1)C1(Cl)CC1 (centres unmarked) [Example I-109],90 to 100
4,OC(Cc1ccc(Br)cc1F)(Cn1cncc1Cl)C1(Cl)CC1 (centres unmarked) [Example I-44],80 to 89
5,N#Cc1cncn1CC(O)(Cc1ccc(F)c(F)c1F)C1(Cl)CC1 (centres unmarked) [Example I-103],90 to 100
6,OC(Cc1ccccc1F)(Cn1cncc1Br)C1(Cl)CC1 (centres unmarked) [Example I-33],80 to 89

# Tested on: Venturia inaequalis
# Assay: In vivo preventive Venturia test (apples), Example J
# Details: 240 h, read-out: efficacy
# Procedure: After the spray coating has dried on, the plants are inoculated with an aqueous conidia suspension of the causal agent of apple scab (Venturia inaequalis) and then remain for 1 day in an incubation cabinet at approximately 20° C. and a relative atmospheric humidity of 100%.
# The plants are then placed in a greenhouse at approximately 21° C. and a relative atmospheric humidity of approximately 90%.
# The test is evaluated 10 days after the inoculation.
row,Structure (SMILES),pest or weed control at 100 ppm [%]
1,CC(C)(C)C(O)(Cc1ccccc1F)Cn1cncc1C#N (centres unmarked) [Example I-138],70 to 79
2,N#Cc1cncn1CC(O)(Cc1ccccc1Cl)C1(F)CC1 (centres unmarked) [Example I-98],90 to 100
3,OC(Cc1ccc(Br)cc1F)(Cn1cncc1Cl)C1(Cl)CC1 (centres unmarked) [Example I-44],90 to 100
4,N#Cc1cncn1CC(O)(Cc1ccc(F)c(F)c1F)C1(Cl)CC1 (centres unmarked) [Example I-103],80 to 89
5,OC(Cc1ccccc1F)(Cn1cncc1Br)C1(Cl)CC1 (centres unmarked) [Example I-33],90 to 100

# Tested on: Uromyces appendiculatus
# Assay: In vivo preventive test on Uromyces appendiculatus (bean rust), Examples G and R7
# Details: 264 h, 500 ppm of active ingredient, bean, preventive spray, evaluated 11 days after inoculation, read-out: efficacy
row,Structure (SMILES),pest or weed control at 500 ppm [%]
1,CC(C)(C)C(O)(Cc1ccccc1F)Cn1cncc1C#N (centres unmarked) [Example I-138],90 to 100
2,N#Cc1cncn1CC(O)(Cc1ccccc1Cl)C1(F)CC1 (centres unmarked) [Example I-98],90 to 100
3,N#Cc1cncn1CC(O)(Cc1ccc(F)c(F)c1)C1(Cl)CC1 (centres unmarked) [Example I-109],90 to 100
4,OC(Cc1ccc(Br)cc1F)(Cn1cncc1Cl)C1(Cl)CC1 (centres unmarked) [Example I-44],90 to 100
5,N#Cc1cncn1CC(O)(Cc1ccc(F)c(F)c1F)C1(Cl)CC1 (centres unmarked) [Example I-103],90 to 100
6,OC(Cc1ccccc1F)(Cn1cncc1Br)C1(Cl)CC1 (centres unmarked) [Example I-33],90 to 100

# Tested on: Septoria tritici
# Assay: In vivo preventive test on Septoria tritici (leaf spot on wheat), Examples E, Q3 and R5
# Details: Zymoseptoria tritici, 576 h, 500 ppm of active ingredient; wheat, preventive spray, evaluated 24 days after inoculation; read-out: efficacy
row,Structure (SMILES),pest or weed control at 500 ppm [%]
1,CC(C)(C)C(O)(Cc1ccccc1F)Cn1cncc1C#N (centres unmarked) [Example I-138],90 to 100
2,N#Cc1cncn1CC(O)(Cc1ccccc1Cl)C1(F)CC1 (centres unmarked) [Example I-98],90 to 100
3,N#Cc1cncn1CC(O)(Cc1ccc(F)c(F)c1)C1(Cl)CC1 (centres unmarked) [Example I-109],90 to 100
4,OC(Cc1ccc(Br)cc1F)(Cn1cncc1Cl)C1(Cl)CC1 (centres unmarked) [Example I-44],90 to 100
5,N#Cc1cncn1CC(O)(Cc1ccc(F)c(F)c1F)C1(Cl)CC1 (centres unmarked) [Example I-103],90 to 100
6,OC(Cc1ccccc1F)(Cn1cncc1Br)C1(Cl)CC1 (centres unmarked) [Example I-33],90 to 100

# Tested on: Sphaerotheca fuliginea
# Assay: In vivo preventive test on Sphaerotheca fuliginea (powdery mildew on cucurbits), Examples F and R6
# Details: Podosphaera fuliginea, 360 h; 500 ppm of active ingredient; gherkin, preventive spray, evaluated 15 days after inoculation; read-out: efficacy
row,Structure (SMILES),pest or weed control at 500 ppm [%]
1,CC(C)(C)C(O)(Cc1ccccc1F)Cn1cncc1C#N (centres unmarked) [Example I-138],90 to 100
2,N#Cc1cncn1CC(O)(Cc1ccccc1Cl)C1(F)CC1 (centres unmarked) [Example I-98],90 to 100
3,N#Cc1cncn1CC(O)(Cc1ccc(F)c(F)c1)C1(Cl)CC1 (centres unmarked) [Example I-109],90 to 100
4,OC(Cc1ccc(Br)cc1F)(Cn1cncc1Cl)C1(Cl)CC1 (centres unmarked) [Example I-44],90 to 100
5,N#Cc1cncn1CC(O)(Cc1ccc(F)c(F)c1F)C1(Cl)CC1 (centres unmarked) [Example I-103],90 to 100
6,OC(Cc1ccccc1F)(Cn1cncc1Br)C1(Cl)CC1 (centres unmarked) [Example I-33],90 to 100

# Tested on: Leptosphaeria nodorum
# Assay: In vivo preventive Leptosphaeria nodorum test (wheat), Example N
# Details: Parastagonospora nodorum, 192 h, 500 ppm of active ingredient, preventive spray, evaluated 8 days after inoculation, read-out: efficacy
# Source text: After the spray coating has been dried, the plants are sprayed with a spore suspension of Leptosphaeria nodorum.
row,Structure (SMILES),pest or weed control at 500 ppm [%]
1,OC(Cc1ccc(Br)cc1F)(Cn1cncc1Cl)C1(Cl)CC1 (centres unmarked) [Example I-44],80 to 89
2,OC(Cc1ccccc1F)(Cn1cncc1Br)C1(Cl)CC1 (centres unmarked) [Example I-33],90 to 100

# Tested on: Alternaria brassicae
# Assay: In vivo preventive test on Alternaria brassicae (leaf spot on radish), Examples A and R1
# Details: Alternaria brassicae, 144 h, 500 ppm of active ingredient, preventive spray, evaluated 6 days after inoculation, read-out: efficacy
row,Structure (SMILES),pest or weed control at 500 ppm [%]
1,OC(Cc1ccccc1F)(Cn1cncc1Br)C1(Cl)CC1 (centres unmarked) [Example I-33],90 to 100

# Tested on: Alternaria solani
# Assay: In vivo preventive Alternaria test (tomatoes), Example H
# Details: 72 h, 100 ppm of active ingredient, preventive spray, evaluated 3 days after inoculation, read-out: efficacy
row,Structure (SMILES),pest or weed control at 100 ppm [%]
1,N#Cc1cncn1CC(O)(Cc1ccccc1Cl)C1(F)CC1 (centres unmarked) [Example I-98],90 to 100
2,OC(Cc1ccc(Br)cc1F)(Cn1cncc1Cl)C1(Cl)CC1 (centres unmarked) [Example I-44],90 to 100
3,N#Cc1cncn1CC(O)(Cc1ccc(F)c(F)c1F)C1(Cl)CC1 (centres unmarked) [Example I-103],80 to 89
4,OC(Cc1ccccc1F)(Cn1cncc1Br)C1(Cl)CC1 (centres unmarked) [Example I-33],90 to 100

# Tested on: not listed separately
# Assay: Measurement of LogP values by HPLC on reversed phase columns (EEC directive 79/831 Annex V.A8)
# Assay type: physicochemical
# Details: method [a]: LC-UV, acidic range, 0.1% formic acid in water and acetonitrile as eluent; Table 1
# Procedure: Measurement of Log P values was performed as outlined above.
row,Structure (SMILES),chromatographic logP
1,CC(C)(C)C(O)(Cc1ccccc1F)Cn1cncc1C#N (centres unmarked) [Example I-138],2.73
2,N#Cc1cncn1CC(O)(Cc1ccccc1Cl)C1(F)CC1 (centres unmarked) [Example I-98],2.53
3,N#Cc1cncn1CC(O)(Cc1ccc(F)c(F)c1)C1(Cl)CC1 (centres unmarked) [Example I-109],2.78
4,OC(Cc1ccc(Br)cc1F)(Cn1cncc1Cl)C1(Cl)CC1 (centres unmarked) [Example I-44],2.64
5,N#Cc1cncn1CC(O)(Cc1ccc(F)c(F)c1F)C1(Cl)CC1 (centres unmarked) [Example I-103],2.92
6,OC(Cc1ccccc1F)(Cn1cncc1Br)C1(Cl)CC1 (centres unmarked) [Example I-33],2.1

# Tested on: Botrytis cinerea
# Assay: In vivo preventive test on Botrytis cinerea (grey mould) on gherkin, Examples B, Q1 and R2
# Details: Botrytis cinerea, 500 ppm of active ingredient, preventive spray, evaluated 4 to 5 days after inoculation, read-out: efficacy
row,Structure (SMILES),pest or weed control at 500 ppm [%]
1,CC(C)(C)C(O)(Cc1ccccc1F)Cn1cncc1C#N (centres unmarked) [Example I-138],80 to 89
2,N#Cc1cncn1CC(O)(Cc1ccccc1Cl)C1(F)CC1 (centres unmarked) [Example I-98],70 to 79
3,OC(Cc1ccc(Br)cc1F)(Cn1cncc1Cl)C1(Cl)CC1 (centres unmarked) [Example I-44],90 to 100
4,OC(Cc1ccccc1F)(Cn1cncc1Br)C1(Cl)CC1 (centres unmarked) [Example I-33],90 to 100
